# Experimental data taken from patent publication US20250222143A1, “TARGETED RADIOTHERANOSTICS BASED ON POLYAZAMACROCYCLIC, MIXED-DONOR SCAFFOLDS LINKED TO A TARGETING VECTOR” (The Research Foundation for the State University of New York, priority 2021, published 2025).
# Where “and” joins values, the source holds several entries; their conditions need not be identical. Equal entries are not always repeated. Where two headings read alike, the source gives them in different places.
# What was measured:
# human serum albumin [1] = biological target: T1, human serum albumin (Homo sapiens, UniProt P02768); assay: Binding to human serum albumin (ultrafiltration, Lu in filtrate by ICP-OES)
# Experimental: (§1) To measure HSA binding of the complexes, a 0.1 mM solution (determined by ICP-OES) of the corresponding ^natLu complex in 4.5% w/v HSA was prepared and pipetted into an Amicon Ultra-0.5 Centrifugal Filter Unit (50 KDa cutoff, Millipore, UFC500396). The mixture was incubated at 37° C. for 15 min and subsequently centrifuged at 12000 rpm for 10 min. Binding is determined by measurement of Lu content in the filtrate by ICP-OES and compared to non-specific binding to the filter in absence of HSA.
# (§2) To this end, each ligand was incubated at 37° C. for 15 minutes in PBS with or without 4.5% human serum albumin to simulate in vivo protein concentration. Each mixture was filtered through a 50 KDa MW cutoff filter and the ^natLu content of the filtrate was measured by ICP-OES. ^natLu-mpaten was used as a chelator-only control with no targeting functionality and thus no expected interaction with human serum albumin.
# human serum albumin [2] = biological target: T1, human serum albumin; conditions: 15 min, 0.1 mM
# Experimental: as §1, §2
# PSMA [3] = biological target: T2, PSMA (Homo sapiens, UniProt Q04609); conditions: value taken from literature; cited from earlier work
# [4] = Formulation stability of [Sc-^18F(picaga-DUPA)]^- by radioHPLC; type: physicochemical
# Experimental: The stability of [Sc-^18F(picaga-DUPA)]^− in both DPBS and saline was evaluated for up to 4 h. It was determined that [Sc-^18F(picaga-DUPA)]^− was stable in both DPBS and saline for at least 4 h (FIG. 7A, B).
# The [^18F]KF stock solution was prepared as previously described (39.4 mCi, 693 μL, pH 2.5). The Sc-^18F precursor was formed via direct addition of 200 μL 0.25 M ammonium acetate (pH 4.1) buffer and 20 nmol ScCl3 stock (0.25 eq.) to the [^18F]KF stock. Following incubation at room temperature for 10 minutes, 79.8 nmol picaga-DUPA (1 eq.) was added to 400 μL of the Sc-^18F precursor stock solution (13.11 mCi), then incubated at 100° C. for 25 minutes. The major [^18F]Sc—F(picaga)-DUPA species was separated the minor isomer and Sc-^18F via analytical radioHPLC (Method C). (FIG. 34) Purified [^18F]Sc—F(picaga)-DUPA complex was concentrated to dryness under reduced pressure and formulated for injection in DPBS (2.11 mCi, 550 μL). Dose formulation stability was analyzed at 0 and 4 hours (FIG. 34A), before and after in vivo experiments, via radioHPLC (Method C). Apparent molar activity: 164 mCi/μmol.
# [5] = cited from earlier work
# [6] = Spectrophotometric pH-dependent titration (complex formation pKa, speciation); type: physicochemical
# Source text: As was previously shown, radiolabeling of Lu-177 with L1 is not feasible at room temperature, in part due to the comparatively high formation pKa of the [Lu(L1)] coordination complex (pH 2.4) (Vaughn, B. A. et al. 2021).
# PSMA + and PSMA − tumors = conditions: previous work, 2 h post-injection, n = 4, cited from earlier work
# [7] = Dose formulation stability of ^177Lu-radiolabeled ligands by radio-HPLC; type: physicochemical; conditions: DMSO:NH4OAc:phosphate buffered saline, room temperature
# Experimental: The stability for ^177Lu-radiolabeled ligands was evaluated by radio-HPLC for radiolytic degradation and decomplexation at relevant time points concentrations for dose preparation, storage, and administration. (picaga)-HSA was radiolabeled as previously described at a specific activity of 0.08 mCi/nmol (3.0 MBq/nmol) and diluted in PBS. A 0.1 mL aliquot was removed, stored at room temperature, and tested for stability by radio-HPLC. The activity concentration at t=0 was 0.12 mCi in 0.1 mL.
# Under the same conditions, ^177Lu-PSMA-617 was determined to be 80% intact.
# PSMA+PC3 PIP cells = assay: Cell uptake and internalization; type: cell-based
# Experimental: The binding and internalization of ^177Lu-(picaga)-HSA and ^177Lu-PSMA-617 was evaluated in PSMA+PC3 PIP cells. In brief, 5×10^5 PC3 PiP cells are suspended, washed and aliquoted. The internalized fraction is determined using ^177Lu-ligand in PC3 PiP cells, with ligands radiolabeled at a specific activity of 0.08 mCi/nmol (3.0 MBq/nmol) and diluted in PBS. […] Subsequently, cell samples were lysed by addition of NaOH (1 M, 1 mL) to release cellular contents and internalized ^177Lu-(picaga)-HSA. Radioactive counts are quantitated separately using a gamma well counter, with each incubation conducted in triplicate.
# [8] = Whole body activity clearance (dose calibrator); parameters: species or system mice; conditions: mouse, in vivo
# Experimental: Whole body activity was measured by placing each mouse into a dose-calibrator. % Remaining activity was given by =[At/At=0] where At is the decay-corrected whole body activity at time t and At-0 is the total activity measured by dose calibrator p.i. The data were fit to a one-phase decay curve in GraphPad Prism and the biological decay constant K was calculated to be K=0.005638 h^−1 for ^177Lu-(picaga)-HSA and K=0.1415 h^−1 for ^177Lu-PSMA-617.
# To approximate clearance of the ^177Lu-constructs, therapy cohort treated with ^177Lu-(picaga)-HSA and ^177Lu-PSMA-617 were monitored for residual whole-body activity remaining in the mouse. The whole-body activity remaining was plotted and the biological half-life in PSMA+tumor-bearing mice was determined using nonlinear regression in Graph Pad Prism (FIG. 16; Table 5). […] This is attributable to both the longer blood half-life because of the HSA-binding functionality and to the enhanced tumor uptake afforded by the longer blood circulation.
# PSMA+PC-3 PIP tumors [9] = assay: Single dose radiotherapy study in PC-3 PIP tumor-bearing mice; conditions: single dose 3.7 MBq
# Experimental: Twelve-week-old male mice were inoculated subcutaneously on the right shoulder with PSMA+PC-3 PIP cells (0.7×10^6/mouse in 1:2 DPBS pH 7.4: Matrigel). Tumors grew nine days before treatment with an approximate volume of 100 mm^3 at day 0. Three groups of mice (n=6) (cohort A, B, and C) with statistically similar body weights and tumor volumes were injected at day 0 of the therapy study. Group A received saline only. […] Following administration of radioligand or vehicle, the mice were monitored by measuring the tumor size and body weight over 60 days. Mice were euthanized when the predefined end point criteria were reached, or when the study was terminated at day 60. The relative body weight (RBW) was defined as [BWx/BW0], where BWx is the body weight in grams at a given day x and BW0 is the body weight in grams on day 0. The tumor dimension was determined by measuring the longest tumor axis (L) and its perpendicular axis (W) with a digital caliper. The tumor volume (V) was calculated according to the equation [V=0.5×(LW^2)].
# PSMA+PC-3 PIP tumors [10] = assay: Pilot therapy study with ^177Lu-picaga-DUPA; conditions: 3.3 MBq, n = 4, 14 days
# Experimental: Twelve-week-old male mice were inoculated subcutaneously on the right shoulder with PSMA+PC-3 PIP cells (0.7×10^5/mouse in 1:1 DPBS pH 7.4: Matrigel). Tumors grew nine days before treatment with an approximate volume of 100 mm^3 at day 0. One group of mice (n=4) (cohort D) with statistically similar body weights and tumor volumes were injected at day 0 of the therapy study. Group D received 3.3 MBq of the radioligand via tail vein injection (^177Lu-picaga-DUPA). Following administration of radioligand, the mice were monitored by measuring the tumor size and body weight over 14 days. Mice were euthanized when the predefined end point criteria were reached, or when the study was terminated at day 14. The relative body weight (RBW) was defined as [BWx/BW0], where BWx is the body weight in grams at a given day x and BW0 is the body weight in grams on day 0. The tumor dimension was determined by measuring the longest tumor axis (L) and its perpendicular axis (W) with a digital caliper. The tumor volume (V) was calculated according to the equation [V=0.5×(LW^2)]. The relative tumor volume (RTV) was defined as [TVx/TV0], where TVz is the tumor volume in mm^3 at a given day x, and TV0 is the tumor volume in mm^3 at day 0.
# PSMA [11] = biological target: T2, PSMA; assay: Displacement assay against ^99mTc(CO)3-MIP-1427 for binding affinity to PSMA; conditions: displacement of ^99mTc-MIP-1427, DCFPyL as internal reference; read-out: affinity (Ki) to the PSMA target
# Experimental: Stock solutions of Lu-(picaga)-HSA in (DMSO: H2O, 1:5) were prepared and concentrations were determined by ICP-OES in accordance with previously published method.
# The Ki was determined by nonlinear regression analysis using GraphPad Prism software.
# Prior to the assessment of the ^177Lu-labeled compounds, binding affinity to the biological target PSMA was evaluated.
# T1 sequence (P02768 25-609): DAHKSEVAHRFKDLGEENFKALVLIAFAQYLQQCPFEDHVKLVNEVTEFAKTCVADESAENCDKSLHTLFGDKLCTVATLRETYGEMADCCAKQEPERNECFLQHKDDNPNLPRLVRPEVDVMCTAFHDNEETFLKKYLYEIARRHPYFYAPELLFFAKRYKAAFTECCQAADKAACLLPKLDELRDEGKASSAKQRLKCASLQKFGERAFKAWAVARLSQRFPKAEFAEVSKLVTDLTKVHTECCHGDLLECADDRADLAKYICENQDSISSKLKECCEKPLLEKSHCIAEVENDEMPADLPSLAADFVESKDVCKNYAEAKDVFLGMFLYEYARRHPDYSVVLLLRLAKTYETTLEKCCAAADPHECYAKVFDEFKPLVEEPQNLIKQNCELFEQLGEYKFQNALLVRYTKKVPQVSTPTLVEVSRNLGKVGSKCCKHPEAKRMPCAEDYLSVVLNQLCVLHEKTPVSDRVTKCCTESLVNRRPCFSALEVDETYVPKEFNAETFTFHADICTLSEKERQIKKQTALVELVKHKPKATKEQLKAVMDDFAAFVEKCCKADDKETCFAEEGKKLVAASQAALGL
# T2 sequence (Q04609 whole entry): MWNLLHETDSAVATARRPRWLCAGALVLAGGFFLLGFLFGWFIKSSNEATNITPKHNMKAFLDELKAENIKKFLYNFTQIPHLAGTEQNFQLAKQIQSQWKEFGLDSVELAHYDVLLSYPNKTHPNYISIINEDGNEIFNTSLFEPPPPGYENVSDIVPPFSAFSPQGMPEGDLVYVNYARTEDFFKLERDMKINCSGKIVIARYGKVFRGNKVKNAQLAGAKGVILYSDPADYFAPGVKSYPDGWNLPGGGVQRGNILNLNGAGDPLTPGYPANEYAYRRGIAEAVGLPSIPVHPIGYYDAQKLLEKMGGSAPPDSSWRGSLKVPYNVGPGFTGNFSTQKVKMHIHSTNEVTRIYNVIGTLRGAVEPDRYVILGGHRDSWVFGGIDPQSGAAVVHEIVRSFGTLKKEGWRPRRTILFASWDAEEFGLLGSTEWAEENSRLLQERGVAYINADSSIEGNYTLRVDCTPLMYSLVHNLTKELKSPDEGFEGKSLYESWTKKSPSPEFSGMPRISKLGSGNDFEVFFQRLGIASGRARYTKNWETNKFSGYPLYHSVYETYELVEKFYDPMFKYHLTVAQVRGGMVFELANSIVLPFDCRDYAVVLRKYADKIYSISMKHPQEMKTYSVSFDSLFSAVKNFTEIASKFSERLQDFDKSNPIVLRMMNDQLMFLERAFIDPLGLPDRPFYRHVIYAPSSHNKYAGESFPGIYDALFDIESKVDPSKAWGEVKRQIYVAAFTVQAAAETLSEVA
structure (smiles),measurement,setting,value
O=C([O-])CN1CCN(CC(=O)[O-])CCN(Cc2cccc(C(=O)[O-])n2)CC1.[Lu+3] [Lu-mpaten],difference in compound in the filtrate with or without HSA,"human serum albumin [1]; 4.5% HSA in PBS vs PBS, chelator-only control",no significant difference
O=C(O)CC[C@H](NC(=O)N[C@@H](CCCCNC(=O)[C@H](Cc1ccc2ccccc2c1)NC(=O)[C@H]1CC[C@H](CNC(=O)CN2CCN(CC(=O)O)CCN(CC(=O)O)CCN(CC(=O)O)CC2)CC1)C(=O)O)C(=O)O [PSMA-617],binding to HSA compared to PBS,human serum albumin [2],55±1.2%
same,Ki,PSMA [3],6.9 ± 1.3 nM
O=C([O-])CN1CCN(Cc2cccc(C(=O)[O-])n2)CCN(C(CCC(=O)NCCCCCNC(=O)CCC(NC(=O)NC(CCC(=O)O)C(=O)O)C(=O)O)C(=O)[O-])CC1.[18F-].[Sc+3] (stereo not drawn) [Sc-^18F(picaga)-DUPA],stability in DPBS,"[4]; DPBS, evaluated for up to 4 h",at least 4 h
same,radioHPLC after purification and storage in PBS for 4 hours,[4],no detectable decomposition even after 4 hours
same,radioHPLC after purification and storage in PBS for 4 hours,[4]; listed as [^18F]Sc—F(picaga)-DUPA,No degradation or defluorination is observed
same,stability in saline,"[4]; saline, evaluated for up to 4 h",at least 4 h
"O=C([O-])CN1CCNCCN(CC(=O)[O-])CC1.[Al+3].[OH-] [[(Al(NO2A)(OH)], reference compound]",pH at which hydroxide complex can form,[5]; literature,< 5
O=C([O-])CN1CCN(CC(=O)[O-])CCN(Cc2cccc(C(=O)[O-])n2)CC1.[Lu+3] [[Lu(L1)]],complex formation pKa (pH of first complex species),"[5]; previously shown (Vaughn, B. A. et al. 2021)",2.4
O=C([O-])CN1CCN(CC(=O)[O-])CCN(Cc2cccc(P(=O)([O-])[O-])n2)CC1.[Lu+3] [[Lu(L2)]],complex formation pKa (pH of first complex species),[6],0.9
O=C([O-])CN1CCN(CC(=O)[O-])CCN(Cc2cccc(C(=O)[O-])n2)CC1.[OH-].[Sc+3] [[Sc(mpatcn)(OH)]^−],pKa of hydroxide complex,"[5]; deprotonation of Sc-bound inner sphere water, literature",9.1
O=C([O-])CN1CCN(Cc2cccc(C(=O)[O-])n2)CCN(C(CCC(=O)NCCCCCNC(=O)CCC(NC(=O)NC(CCC(=O)O)C(=O)O)C(=O)O)C(=O)[O-])CC1.[47Sc+3] (stereo not drawn) [^47Sc(picaga)-DUPA],Blood 2 h,PSMA + and PSMA − tumors; Blood,0.19 ± 0.14 % ID/g
same,Bone 2 h,PSMA + and PSMA − tumors; Bone,0.12 ± 0.06 % ID/g
same,Heart 2 h,PSMA + and PSMA − tumors; Heart,0.11 ± 0.03 % ID/g
same,Kidney 2 h,PSMA + and PSMA − tumors; Kidney,7.13 ± 3.73 % ID/g
same,Liver 2 h,PSMA + and PSMA − tumors; Liver,1.22 ± 1.88 % ID/g
same,Muscle 2 h,PSMA + and PSMA − tumors; Muscle,0.08 ± 0.03 % ID/g
same,PSMA + Tumor 2 h,PSMA + and PSMA − tumors; PSMA + Tumor,12.74 ± 2.87 % ID/g
same,PSMA − Tumor 2 h,PSMA + and PSMA − tumors; PSMA − Tumor,0.77 ± 1.11 % ID/g
same,Sm. Int. 2 h,PSMA + and PSMA − tumors; Sm. Int.,0.18 ± 0.07 % ID/g
same,Spleen 2 h,PSMA + and PSMA − tumors; Spleen,0.24 ± 0.10 % ID/g
"O=C([O-])CN1CCN(CC(=O)[O-])CCN(CC(=O)NCC2CCC(C(=O)N[C@@H](Cc3ccc4ccccc4c3)C(=O)NCCCC[C@H](NC(=O)N[C@@H](CCC(=O)O)C(=O)O)C(=O)O)CC2)CCN(CC(=O)[O-])CC1.[177Lu+3] (stereo partly drawn) [^177Lu-PSMA-617, reference compound]","complex stability in dose formulation, 4 h",[7]; 4 h,>99%
same,"complex stability in dose formulation, 24 h",[7]; 24 h,>99%
same,"complex stability in dose formulation, 48 h",[7]; 48 h,>99%
same,"complex stability in dose formulation, 14 d (% intact)",[7]; 14 d,80%
same,% Internalization 2 h,PSMA+PC3 PIP cells; 2 h,33.53±1.40% and 33.53%
same,% Uptake 2 h,PSMA+PC3 PIP cells; 2 h,6.36±0.43% and 6.36%
same,% Internalization 4 h,PSMA+PC3 PIP cells; 4 h,36.11±2.93% and 36.11%
same,% Uptake 4 h,PSMA+PC3 PIP cells; 4 h,6.15±0.21% and 6.15%
same,% Internalization 24 h,PSMA+PC3 PIP cells; 24 h,50.93±2.14% and 50.93%
same,% Uptake 24 h,PSMA+PC3 PIP cells; 24 h,9.60±0.11% and 9.60%
same,% Uptake Blocking,PSMA+PC3 PIP cells; blocking with unlabeled glu-urea-glu PSMA targeting molecule,0.45±0.03% and 0.45%
same,biological decay constant K,[8],0.1415 h^−1
same,biological half-life t1/2,[8],4.9 h
same,"% activity remaining in whole body p.i., 0 h",[8]; 0 h,100.00 ± 0.00%
same,"% activity remaining in whole body p.i., 24 h",[8]; 24 h,3.35 ± 0.16%
same,relative body weight during therapy study,PSMA+PC-3 PIP tumors [9],dropped during the study
same,tumor growth / survival compared to control cohort,PSMA+PC-3 PIP tumors [9]; PC-3 PIP tumor-bearing mice,marginally enhanced survival and delayed tumor growth
same,median survival,"PSMA+PC-3 PIP tumors [9]; PC-3 PIP tumor-bearing mice, study to day 60",21 days
O=C([O-])CN1CCN(Cc2cccc(C(=O)[O-])n2)CCN(C(CCC(=O)NCCCCCNC(=O)CCC(NC(=O)NC(CCC(=O)O)C(=O)O)C(=O)O)C(=O)[O-])CC1.[177Lu+3] (stereo not drawn) [^177Lu-picaga-DUPA],delay in tumor growth (pilot data),PSMA+PC-3 PIP tumors [10],delay in tumor growth for ^177Lu-PSMA-617 was similar to the delay observed in our pilot data
O=C([O-])CN1CCN(Cc2cccc(C(=O)[O-])n2)CCN(C(CCC(=O)NC(CCCCNC(=O)CCCc2ccc(I)cc2)C(=O)NCC2CCC(C(=O)NC(Cc3ccc4ccccc4c3)C(=O)NCCCCC(NC(=O)NC(CCC(=O)O)C(=O)O)C(=O)O)CC2)C(=O)[O-])CC1.[Lu+3] (stereo not drawn) [^natLu-(picaga)-HSA],Ki,PSMA [11],1.4 ± 0.6 nM
same,binding to HSA compared to PBS,"human serum albumin [1]; 0.1 mM ^natLu complex, 4.5% HSA in PBS, 37° C., 15 min, 50 KDa filter",80±3.3%
